The source of these data is ChEMBL document CHEMBL6074684, “Structure-activity relationship study of novel evodiamine amino acid conjugates with potent anti-colorectal cancer efficacy” (Eur J Med Chem, 2025).

Data set [1] relates to HT-29. Nature of the data set: Antiproliferative activity against human HT-29 cells assessed as inhibition of cell growth incubated for 72 hrs by MTT assay. Type of data set: functional, cell-based. To be noted: HT-29, 72 h. For orientation: Tetrazolium assays rely on reduction of a dye to a coloured formazan, in cell work by metabolically active cells.
Data set [2] concerns LoVo. Nature of the data set: Antiproliferative activity against human LoVo cells assessed as inhibition of cell growth incubated for 72 hrs by MTT assay. Type of data set: functional, cell-based.
For data set [3], the system named is HGC-27. Nature of the data set: Antiproliferative activity against human HGC-27 cells assessed as inhibition of cell growth incubated for 72 hrs by MTT assay. Format: functional, cell-based. To be noted: HGC-27, 72 h.
Data set [4] deals with SGC-7901. Nature of the data set: Antiproliferative activity against human SGC-7901 cells assessed as inhibition of cell growth incubated for 72 hrs by MTT assay. As to conditions: SGC-7901, 72 h. Format: functional, cell-based.
For data set [5], the system named is SK-HEP1. Briefly: Antiproliferative activity against human SK-HEP1 cells assessed as inhibition of cell growth incubated for 72 hrs by MTT assay. Format: functional, cell-based. To be noted: SK-HEP1, 72 h.
Data set [6] is described as follows: Stability of compound in rat plasma assessed as half-life. Type of data set: ADME, cell-free.
Data set [7] is described as follows: Stability of compound at pH 4.6 assessed as residual rate measured after 2 days. As to conditions: buffer, time 2 day, read-out: Stability. Format: physicochemical.
Data set [8] in a line: Stability of compound at pH 5.5 assessed as residual rate measured after 2 days. Type of data set: physicochemical. To be noted: buffer, time 2 day, read-out: Stability.
A short description of data set [9]: Stability of compound at pH 7.4 assessed as residual rate measured after 2 days. As to conditions: buffer, time 2 day, read-out: Stability. Format: physicochemical.
Data set [10] can be described thus: Half-life in male Sprague-Dawley rat at 50 mg/kg, ip measured after 24 hrs by LC-MS/MS analysis. Format: ADME, organism-based. As to conditions: in vivo.
For data set [11], the target named is T1, DNA topoisomerase 1 (Homo sapiens) (UniProt P11387).
T1 sequence (whole entry): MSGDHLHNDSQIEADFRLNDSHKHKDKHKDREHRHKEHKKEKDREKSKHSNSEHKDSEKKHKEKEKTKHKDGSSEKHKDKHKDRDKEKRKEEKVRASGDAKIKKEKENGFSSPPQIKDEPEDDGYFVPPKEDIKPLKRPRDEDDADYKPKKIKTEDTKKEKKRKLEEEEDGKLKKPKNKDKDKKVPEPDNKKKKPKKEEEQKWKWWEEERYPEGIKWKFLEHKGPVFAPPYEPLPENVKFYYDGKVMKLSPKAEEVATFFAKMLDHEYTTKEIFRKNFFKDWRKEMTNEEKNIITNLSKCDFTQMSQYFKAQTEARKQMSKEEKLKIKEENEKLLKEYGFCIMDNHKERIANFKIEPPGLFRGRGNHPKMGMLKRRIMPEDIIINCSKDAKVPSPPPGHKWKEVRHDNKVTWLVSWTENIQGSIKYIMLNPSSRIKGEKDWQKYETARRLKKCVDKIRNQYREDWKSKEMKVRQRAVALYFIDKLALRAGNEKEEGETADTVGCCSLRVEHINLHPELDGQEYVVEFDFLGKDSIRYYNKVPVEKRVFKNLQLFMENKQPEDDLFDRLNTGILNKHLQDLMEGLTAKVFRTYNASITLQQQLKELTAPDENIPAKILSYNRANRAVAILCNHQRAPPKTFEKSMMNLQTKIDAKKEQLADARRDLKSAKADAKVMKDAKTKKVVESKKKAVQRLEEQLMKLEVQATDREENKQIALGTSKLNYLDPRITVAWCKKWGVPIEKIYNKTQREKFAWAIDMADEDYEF
Briefly: Inhibition of topoisomerase 1 (unknown origin) mediated DNA relaxation at 100 uM preincubated for 20 mins followed by pBR322 plasmid DNA addition and measured after 15 mins by red nucleic acid gel staining based agarose gel electrophoresis. As to conditions: time 35.0 min.

The subject of data set [12] is RKO. Briefly: Antiproliferative activity against human RKO cells assessed as reduction in cell viability measured after 24 hrs. Type of data set: functional, cell-based. As to conditions: dose 40-200 nmol/L.
Data set [13] relates to LoVo. Nature of the data set: Cell cycle arrest in human LoVo cells assessed as accumulation of cells at S phase cells at 90 nM incubated for 24 hrs by […]PI staining based flow cytometric analysis (reference value: 54.99 %). Type of data set: functional.
The subject of data set [14] is RKO. Nature of the data set: Cell cycle arrest in human RKO cells assessed as accumulation of cells at G2 phase at 90 nM incubated for 24 hrs by […]PI staining based flow cytometric analysis (reference value: 20.07 %). Type of data set: functional.
For data set [15], the system named is RKO. Briefly: Cell cycle arrest in human RKO cells assessed as accumulation of cells at G1 phase at 10 nM incubated for 24 hrs by […]PI staining based flow cytometric analysis (reference value: 35.29 %). Format: functional.
Data set [16] concerns RKO. Nature of the data set: Cell cycle arrest in human RKO cells assessed as accumulation of cells at G2 phase at 10 nM incubated for 24 hrs by […]PI staining based flow cytometric analysis (reference value: 20.07 %). Type of data set: functional. For orientation: Flow cytometry measures light scatter and fluorescence of single cells or particles in a stream.
Data set [17] concerns RKO. Nature of the data set: Cell cycle arrest in human RKO cells assessed as accumulation of cells at S phase at 10 nM incubated for 24 hrs by […]PI staining based flow cytometric analysis (reference value: 43.36 %). Format: functional.
The test system of data set [18] is RKO. Briefly: Cell cycle arrest in human RKO cells assessed as accumulation of cells at G2 phase at 30 nM incubated for 24 hrs by […]PI staining based flow cytometric analysis (reference value: 20.07 %). Type of data set: functional.
The test system of data set [19] is LoVo. Nature of the data set: Induction of apoptosis in human LoVo cells assessed as apoptosis rate at 90 nM incubated for 24 hrs by Annexin V/PI staining based flow cytometric analysis (reference value: 4.71 %). Format: functional.
Data set [20] concerns RKO. Briefly: Induction of apoptosis in human RKO cells assessed as apoptosis rate at 90 nM incubated for 24 hrs by Annexin V/PI staining based flow cytometric analysis (reference value: 4.87 %). Type of data set: functional.
Data set [21] is described as follows: Apparent clearance during terminal phase in male Sprague-Dawley rat at 50 mg/kg, ip measured after 24 hrs by LC-MS/MS analysis. To be noted: in vivo, read-out: CLz/F (converted). Type of data set: ADME, organism-based.
Data set [22] concerns Mitochondrial membrane. Nature of the data set: Induction of mitochondrial membrane potential loss in human LoVo cells assessed as TMRE positive cells at 90 nM incubated for 24 hrs by TMRE staining based flow cytometric analysis (reference value: 95.93 %). Format: cell membranes.
Data set [23] concerns LoVo. Nature of the data set: Antitumor activity against human LoVo cells xenografted in male BALB/c nude mouse assessed as tumor growth inhibition at 40 mg/kg, ip administered once daily for 14 days relative to control. Type of data set: functional. As to conditions: 336 h, time 14 day, read-out: TGI.
A short description of data set [24]: Toxicity in male BALB/c nude mouse xenografted with human LoVo cells assessed as tolerance at 40 mg/kg, ip administered once daily for 14 days. Type of data set: organism-based. As to conditions: in vivo, 336 h, time 14 day. On the technique in general: A xenograft is tissue or cells of one species grown in another, often human tumour cells in immunodeficient mice.

As usually defined, the pIC50 is the negative decadic logarithm of the IC50, by convention in mol/L. One may read the half-life as how long it takes for the measured level to halve.

The structures appear in SMILES notation. pIC50: −log10 of the molar value. The source made the active and inactive calls. No cut-off for these calls is given here.

Regarding `CC(C)(C)OC(=O)N[C@@H](CCC(N)=O)C(=O)Oc1ccc2[nH]c3c(c2c1)CCN1C(=O)c2cc(F)ccc2N(c2cccc(F)c2)[C@H]31`, the pIC50 in data set [1] is 6.89; in data set [2], 7.15; in data set [3], 6.96; in data set [4], 6.31; in data set [5], 6.06. In addition, the half-life in data set [6] is 36 min; in data set [10], 82.8 min. Also, the values for the remaining at 48 h in [7], in data set [8] and in [9] were 67.8%, 60.1% and 40.2%, respectively. Besides, the inhibition result in [11] was “Active”. Further, the Activity entry is “Dose-dependent-effect” in data set [12]; 53.62% in data set [13]; 21.72% in data set [14]; 29.55% in data set [15]; 27.14% in data set [16]; 42.5% in [17]. In addition, the Activity in [18] is 56.8%; in data set [19], 36.4%; in data set [20] it was 12.25%; in data set [22], 86.7%; in [24] it was “Non-toxic”. The CL/F in [21] is 57.2 mL/min/kg. For the same compound, in data set [23], the inhibition in vivo at 40 mg/kg was 82.5%.
